# Laboratory results as given in publication PMC4178217, “Quinoline 3-sulfonamides inhibit lactate dehydrogenase A and reverse aerobic glycolysis in cancer cells” (Cancer & Metabolism, 2013).
# System: HepG2 cells
# Settings: HepG2 conditioned medium, 10 μM, 24 h
# Procedure: Ten million Snu398 or HepG2 cells per flask were plated in R10 medium in T150 tissue culture flasks and allowed to attach overnight. The following morning, medium was replaced with medium containing either DMSO or 10 μM LDHA inhibitor, and cells were incubated for 24 h at 37°C. The conditioned medium was collected and cells were washed, lifted by trypsinization and pelleted. Both medium and cell samples were submitted for mass spectroscopy (MS) analysis of over 500 individual metabolites. All samples were prepared in replicates of five.
smiles,measurement,value
COc1ncc(-c2ccc3c(Nc4cc(C(=O)O)cc(C5CCCC5)c4)c(S(=O)(=O)NC4CC4)cnc3c2)c(OC)n1 [Compound 2],fold change 1-oleoylglycerophosphocholine,0.94
same,fold change 1-palmitoleoylglycerophosphocholine*,0.91
same,fold change 1-palmitoylglycerophosphocholine,0.94
same,fold change 1-stearoylglycerophosphocholine,0.95
same,fold change 2'-O-methylguanosine,0.70
same,fold change 2-aminobutyrate,0.91
same,fold change 2-hydroxybutyrate (AHB),0.89
same,fold change 2-hydroxyglutarate,0.93
same,fold change 2-methylbutyroylcarnitine,0.94
same,fold change 2-methylbutyrylglycine,0.81
same,fold change 2-oleoylglycerophosphocholine*,0.96
same,fold change 2-palmitoylglycerophosphocholine*,0.98
same,fold change 2-stearoylglycerophosphocholine*,1.16
same,fold change 3-(4-hydroxyphenyl)lactate,1.15
same,fold change 3-dehydrocarnitine*,1.04
same,fold change 3-indoxyl sulfate,0.96
same,fold change 3-methyl-2-oxobutyrate,0.99
same,fold change 3-methyl-2-oxovalerate,0.94
same,fold change 4-acetamidobutanoate,0.92
same,fold change 4-guanidinobutanoate,0.88
same,fold change 4-methyl-2-oxopentanoate,0.96
same,fold change 5-oxoproline,1.02
same,fold change 6'-sialyllactose,1.01
same,fold change C-glycosyltryptophan*,1.06
same,fold change HEPES,0.97
same,"fold change Isobar: 2-propylpentanoic acid, 2-ethylhexanoic acid",1.01
same,fold change N1-methyladenosine,1.02
same,fold change N1-methylguanosine,0.87
same,fold change N6-carbamoylthreonyladenosine,1.10
same,fold change N-acetylaspartate (NAA),0.70
same,fold change N-acetylneuraminate,1.09
same,fold change N-acetylornithine,0.99
same,fold change X - 02952,8.06
same,fold change X - 02973,1.18
same,fold change X - 03090,0.99
same,fold change X - 04015,1.00
same,fold change X - 04133,1.08
same,fold change X - 04135,1.13
same,fold change X - 04148,0.80
same,fold change X - 04252,0.53
same,fold change X - 04357,1.09
same,fold change X - 05907,0.49
same,fold change X - 06126,0.78
same,fold change X - 06911,0.99
same,fold change X - 08172,0.15
same,fold change X - 08889,1.21
same,fold change X - 08895,1.11
same,fold change X - 09008,0.87
same,fold change X - 09026,0.58
same,fold change X - 10475,0.76
same,fold change X - 10476,0.43
same,fold change X - 10634,0.56
same,fold change X - 10740,1.18
same,fold change X - 10869,0.93
same,fold change X - 11081,1.03
same,fold change X - 11315,0.83
same,fold change X - 11533,1.04
same,fold change X - 11593,1.12
same,fold change X - 11787,1.01
same,fold change X - 12013,1.09
same,fold change X - 12015,0.97
same,fold change X - 12117,0.78
same,fold change X - 12216,0.72
same,fold change X - 12339,1.38
same,fold change X - 12435,0.91
same,fold change X - 12602,0.93
same,fold change X - 12729,1.15
same,fold change X - 12749,0.95
same,fold change X - 12776,0.86
same,fold change X - 12786,1.07
same,fold change X - 12792,0.77
same,fold change X - 12799,1.04
same,fold change X - 12944,0.83
same,fold change X - 13100,1.00
same,fold change X - 13103,0.95
same,fold change X - 13104,1.11
same,fold change X - 13110,1.00
same,fold change X - 13115,0.98
same,fold change X - 13117,1.01
same,fold change X - 13166,0.95
same,fold change X - 13483,0.84
same,fold change X - 13491,1.19
same,fold change X - 13494,0.82
same,fold change X - 13496,1.11
same,fold change X - 13507,1.00
same,fold change X - 13553,1.05
same,fold change X - 13581,1.00
same,fold change X - 13857,0.74
same,fold change X - 14056,0.96
same,fold change X - 14574,0.86
same,fold change X - 14588,0.93
same,fold change X - 15558,1.17
same,fold change X - 15559,1.15
same,fold change X - 15562,1.13
same,fold change X - 15563,1.13
same,fold change X - 15678,1.32
same,fold change X - 15808,1.14
same,fold change X - 16103,0.86
same,fold change X - 16116,1.18
same,fold change X - 16200,1.04
same,fold change X - 16206,0.95
same,fold change X - 16439,1.13
same,fold change X - 16444,1.07
same,fold change X - 17112,1.02
same,fold change X - 17430,1.13
same,fold change acetylcarnitine,0.95
same,fold change acetylphosphate,0.92
same,fold change alanine,0.99
same,fold change alanylglutamine,0.96
same,fold change allantoin,0.85
same,fold change arabitol,0.72
same,fold change arachidonate (20:4n6),1.07
same,fold change arginine,0.98
same,fold change asparagine,0.30
same,fold change aspartate,0.84
same,fold change aspartylleucine,1.01
same,fold change beta-alanine,1.41
same,fold change beta-hydroxyisovalerate,0.84
same,fold change beta-hydroxypyruvate,0.79
same,fold change betaine,0.97
same,fold change biotin,0.96
same,fold change butyrylcarnitine,0.90
same,fold change caproate (6:0),0.83
same,fold change caprylate (8:0),0.79
same,fold change carnitine,1.03
same,fold change catechol sulfate,1.01
same,fold change choline,1.06
same,fold change citrate,0.97
same,fold change citrulline,0.87
same,fold change creatine,1.02
same,fold change creatinine,0.94
same,fold change cyclo(leu-ala),0.49
same,fold change cysteine,0.78
same,fold change cysteine sulfinic acid,1.00
same,fold change cysteine-glutathione disulfide,1.28
same,fold change deoxycarnitine,0.98
same,fold change dimethyl sulfoxide*,1.04
same,fold change dimethylarginine (SDMA + ADMA),0.97
same,fold change docosahexaenoate (DHA; 22:6n3),0.92
same,fold change docosapentaenoate (n3 DPA; 22:5n3),1.17
same,fold change erythritol,0.92
same,fold change erythronate*,0.99
same,fold change ethanolamine,1.13
same,fold change folate,0.99
same,fold change fructose,1.06
same,fold change fumarate,0.80
same,fold change gamma-glutamylisoleucine*,1.02
same,fold change gamma-glutamylleucine,0.87
same,fold change gamma-glutamylphenylalanine,0.85
same,fold change gamma-glutamylvaline,0.73
same,fold change glucose,0.87
same,fold change glutamate,1.00
same,fold change glutamine,0.96
same,fold change glycerate,1.05
same,fold change glycerol,1.09
same,fold change glycerol 3-phosphate (G3P),1.47
same,fold change glycerophosphorylcholine (GPC),0.95
same,fold change glycine,0.87
same,fold change glycochenodeoxycholate,1.01
same,fold change glycocholate,0.96
same,fold change glycylglycine,0.55
same,fold change glycylleucine,0.85
same,fold change glycyltyrosine,1.01
same,fold change glycylvaline,1.06
same,fold change heme*,0.95
same,fold change hexadecanedioate,0.84
same,fold change hippurate,0.98
same,fold change histidine,1.02
same,fold change homostachydrine*,1.00
same,fold change hydroquinone,0.97
same,fold change indolelactate,1.03
same,fold change isobutyrylcarnitine,0.98
same,fold change isoleucine,1.02
same,fold change isovalerate,0.80
same,fold change isovalerylcarnitine,1.29
same,fold change kynurenate,1.06
same,fold change kynurenine,1.00
same,fold change lactate,0.89
same,fold change leucine,1.03
same,fold change lysine,0.70
same,fold change lysylleucine,1.12
same,fold change malate,1.02
same,fold change mannitol,0.57
same,fold change methionine,0.96
same,fold change myo-inositol,0.85
same,fold change nicotinamide,0.80
same,fold change ornithine,0.79
same,fold change p-aminobenzoate (PABA),0.99
same,fold change p-cresol sulfate,0.91
same,fold change palmitoyl sphingomyelin,0.92
same,fold change pantothenate,1.00
same,fold change phenol red,0.97
same,fold change phenol sulfate,0.93
same,fold change phenylacetylglycine,1.02
same,fold change phenylalanine,0.98
same,fold change phosphate,0.99
same,fold change pipecolate,0.97
same,fold change pro-hydroxy-pro,0.98
same,fold change proline,0.93
same,fold change propionylcarnitine,1.00
same,fold change pseudouridine,0.96
same,fold change putrescine,0.90
same,fold change pyridoxate,0.92
same,fold change pyridoxine (Vitamin B6),1.04
same,fold change pyruvate,1.37
same,fold change ribitol,0.75
same,fold change riboflavin (Vitamin B2),0.98
same,fold change scyllo-inositol,1.09
same,fold change serine,0.61
same,fold change serotonin (5HT),0.82
same,fold change sorbitol,0.53
same,fold change succinate,1.07
same,fold change taurocholate,1.00
same,fold change taurodeoxycholate,0.93
same,fold change tetradecanedioate,1.13
same,fold change thiamin (Vitamin B1),1.00
same,fold change threitol,0.99
same,fold change threonine,0.96
same,fold change trans-4-hydroxyproline,0.90
same,fold change tryptophan,1.03
same,fold change tyrosine,0.99
same,fold change uracil,0.88
same,fold change urea,0.83
same,fold change uridine,0.93
same,fold change valerylcarnitine,1.27
same,fold change valine,0.98
same,fold change xylitol,0.88
